# Measurements published in PubChem BioAssay (NCI).
#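 Step 1: Grow cells in 96-well plates. Step 2: Expose to compound for 48 hours at 5 concentrations. Step 3: Interpolate endpoints linearly; if unreached, use highest concentration. TGI: total growth inhibition.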
# Assays:
# Assay in all cases: NCI tumour cell line growth inhibition, 48 h
# HCT-116 colon = tested on: HCT-116 colon
# SK-MEL-28 melanoma = tested on: SK-MEL-28 melanoma
# SN12K1 renal = tested on: SN12K1 renal
# SW-620 colon = tested on: SW-620 colon
# XF 498 CNS = tested on: XF 498 CNS
# IGROV1 ovarian = tested on: IGROV1 ovarian
# HOP-62 NSCLC = tested on: HOP-62 NSCLC
# HCC-2998 colon = tested on: HCC-2998 colon
# SF-539 CNS = tested on: SF-539 CNS
# A549 NSCLC = tested on: A549 NSCLC
# SN12C renal = tested on: SN12C renal
# M19-MEL melanoma = tested on: M19-MEL melanoma
# RXF 393 renal = tested on: RXF 393 renal
# LOX IMVI melanoma = tested on: LOX IMVI melanoma
# P388 leukemia = tested on: P388 leukemia
# COLO 205 colon = tested on: COLO 205 colon
# HT29 colon = tested on: HT29 colon
# DMS 273 small cell lung = tested on: DMS 273 small cell lung
# NCI-H460 lung = tested on: NCI-H460 lung
# U251 CNS = tested on: U251 CNS
# DMS 114 small cell lung = tested on: DMS 114 small cell lung
# NCI-H226 lung = tested on: NCI-H226 lung
# SNB-75 CNS = tested on: SNB-75 CNS
# UACC-62 melanoma = tested on: UACC-62 melanoma
# K-562 leukemia = tested on: K-562 leukemia
# MOLT-4 leukemia = tested on: MOLT-4 leukemia
# EKVX NSCLC = tested on: EKVX NSCLC
# HOP-92 NSCLC = tested on: HOP-92 NSCLC
# NCI-H23 lung = tested on: NCI-H23 lung
# P388/ADR leukemia = tested on: P388/ADR leukemia
# SK-MEL-5 melanoma = tested on: SK-MEL-5 melanoma
# RPMI-8226 leukemia = tested on: RPMI-8226 leukemia
# HL-60(TB) leukemia = tested on: HL-60(TB) leukemia
# UO-31 renal = tested on: UO-31 renal
# UACC-257 melanoma = tested on: UACC-257 melanoma
# DLD-1 colon = tested on: DLD-1 colon
# OVCAR-3 ovarian = tested on: OVCAR-3 ovarian
# SK-MEL-2 melanoma = tested on: SK-MEL-2 melanoma
# SF-295 CNS = tested on: SF-295 CNS
# NCI-H522 lung = tested on: NCI-H522 lung
# NCI/ADR-RES ovarian = tested on: NCI/ADR-RES ovarian
# KM20L2 colon = tested on: KM20L2 colon
# MALME-3M melanoma = tested on: MALME-3M melanoma
# A498 renal = tested on: A498 renal
# HOP-18 NSCLC = tested on: HOP-18 NSCLC
# OVCAR-5 ovarian = tested on: OVCAR-5 ovarian
# CAKI-1 renal = tested on: CAKI-1 renal
# SNB-19 CNS = tested on: SNB-19 CNS
# HCT-15 colon = tested on: HCT-15 colon
# MCF7 breast = tested on: MCF7 breast
# SK-OV-3 ovarian = tested on: SK-OV-3 ovarian
# OVCAR-8 ovarian = tested on: OVCAR-8 ovarian
# SF-268 CNS = tested on: SF-268 CNS
# CCRF-CEM leukemia = tested on: CCRF-CEM leukemia
# SNB-78 CNS = tested on: SNB-78 CNS
# OVCAR-4 ovarian = tested on: OVCAR-4 ovarian
# KM12 colon = tested on: KM12 colon
smiles,measurement,setting,value
O=NN(CCCl)C(=O)NC1CCC(O)CC1 (configuration not stated),TGI,HCT-116 colon,> 94.4 µM
same,TGI,SK-MEL-28 melanoma,63.4 µM
same,TGI,SN12K1 renal,> 100 µM
same,TGI,SW-620 colon,> 100 µM
same,TGI,XF 498 CNS,60.3 µM
same,TGI,IGROV1 ovarian,> 100 µM
same,TGI,HOP-62 NSCLC,> 100 µM
same,TGI,HCC-2998 colon,> 100 µM
same,TGI,SF-539 CNS,> 61 µM
same,TGI,A549 NSCLC,> 100 µM
same,TGI,SN12C renal,> 100 µM
same,TGI,M19-MEL melanoma,> 91 µM
same,TGI,RXF 393 renal,> 71.5 µM
same,TGI,LOX IMVI melanoma,> 60.6 µM
same,TGI,P388 leukemia,20.5 µM
same,TGI,COLO 205 colon,> 72.9 µM
same,TGI,HT29 colon,> 100 µM
same,TGI,DMS 273 small cell lung,> 100 µM
same,TGI,NCI-H460 lung,> 100 µM
same,TGI,U251 CNS,> 100 µM
same,TGI,DMS 114 small cell lung,51.5 µM
same,TGI,NCI-H226 lung,> 100 µM
same,TGI,SNB-75 CNS,> 79.7 µM
same,TGI,UACC-62 melanoma,40.4 µM
same,TGI,K-562 leukemia,> 77.6 µM
same,TGI,MOLT-4 leukemia,68.4 µM
same,TGI,EKVX NSCLC,> 100 µM
same,TGI,HOP-92 NSCLC,31.9 µM
same,TGI,NCI-H23 lung,> 100 µM
same,TGI,P388/ADR leukemia,18 µM
same,TGI,SK-MEL-5 melanoma,> 100 µM
same,TGI,RPMI-8226 leukemia,34.9 µM
same,TGI,HL-60(TB) leukemia,41.9 µM
same,TGI,UO-31 renal,> 100 µM
same,TGI,UACC-257 melanoma,> 85.2 µM
same,TGI,DLD-1 colon,> 77 µM
same,TGI,OVCAR-3 ovarian,> 89.8 µM
same,TGI,SK-MEL-2 melanoma,> 100 µM
same,TGI,SF-295 CNS,> 80.2 µM
same,TGI,NCI-H522 lung,55.4 µM
same,TGI,NCI/ADR-RES ovarian,69.4 µM
same,TGI,KM20L2 colon,> 100 µM
same,TGI,MALME-3M melanoma,> 71.1 µM
same,TGI,A498 renal,> 100 µM
same,TGI,HOP-18 NSCLC,> 90.9 µM
same,TGI,OVCAR-5 ovarian,> 100 µM
same,TGI,CAKI-1 renal,> 89.6 µM
same,TGI,SNB-19 CNS,> 100 µM
same,TGI,HCT-15 colon,58.2 µM
same,TGI,MCF7 breast,> 100 µM
same,TGI,SK-OV-3 ovarian,> 100 µM
same,TGI,OVCAR-8 ovarian,> 100 µM
same,TGI,SF-268 CNS,43.3 µM
same,TGI,CCRF-CEM leukemia,52.2 µM
same,TGI,SNB-78 CNS,63.3 µM
same,TGI,OVCAR-4 ovarian,> 100 µM
same,TGI,KM12 colon,> 100 µM
